IC50 data for one compound are collected here from PMC12490239, “Combining BET inhibition with SMAC mimetics restricts tumor growth and triggers immune surveillance in preclinical cancer models” (Cell Reports Medicine, 2025).

Holding throughout (assay): cells
What all share (set-up): CellTiter-Glo 2.0 luminescence proliferation/viability assay, single agents, human tumour cell line panel

One assay has as its system AsPC-1. To be noted: Homo sapiens, ASPC1, 96 h; single agent; read-out: IC50 SMACm. Summed up: (§1)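 Human tumour cell lines were seeded into assay plates and held at 37°C with 5% CO2 for twenty-four hours, then exposed in triplicate to rising concentrations of the SMAC mimetic, from 4.5 nM to 10 μM, with DMSO as control. After 96 h, viability was read as CellTiter-Glo2.0 luminescence to derive single-agent IC50 values.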

A further assay relates to C80. To be noted: 96 h; single agent; read-out: IC50 SMACm. The method, boiled down: as §1
The test system of a further assay is COR-L105. To be noted: Homo sapiens, COR-L105, 96 h; single agent; read-out: IC50 SMACm. Summed up:
as §1

Another assay deals with DLD-1. To be noted: Homo sapiens, DLD-1, 96 h; single agent; read-out: IC50 SMACm. Summed up: as §1
Another assay has as its system HCA46. Conditions: 96 h; single agent; read-out: IC50 SMACm. Summed up: as §1
The subject of a further assay is HPAF-II. Conditions: Homo sapiens, HPAF-II, 96 h; single agent; read-out: IC50 SMACm. Summed up:
as §1

In a further assay the test system is HRA16. To be noted: 96 h; single agent; read-out: IC50 SMACm. The method, boiled down:
as §1

For a further assay, the system named is IM-95. Conditions: Homo sapiens, IM95, 96 h; single agent; read-out: IC50 SMACm. The method, boiled down: as §1
The subject of another assay is LS-174T. To be noted: Homo sapiens, LS174T, 96 h; single agent; read-out: IC50 SMACm. Summed up: as §1
A further assay has as its system LS-513. Conditions: Homo sapiens, LS-513, 96 h; single agent; read-out: IC50 SMACm. Summed up:
as §1

A further assay deals with NCI-SNU-1. Conditions: 96 h; single agent; read-out: IC50 SMACm. Summed up: as §1
A further assay relates to NUGC-3. Conditions: Homo sapiens, NUGC-3, 96 h; single agent; read-out: IC50 SMACm. Summed up: as §1
A further assay concerns SNU977. To be noted: 96 h; single agent; read-out: IC50 SMACm. The method, boiled down:
as §1

The subject of the next assay is SNUC2B. To be noted: Homo sapiens, SNU-C2B, 96 h; single agent; read-out: IC50 SMACm. The method, boiled down: as §1
A further assay deals with SW1417. Conditions: Homo sapiens, SW1417, 96 h; single agent; read-out: IC50 SMACm. Summed up:
as §1

Each structure is given as a SMILES string. Where only a bound is given, the exact number is not on record here.

`CN[C@@H](C)C(=O)Nc1ccc(-c2c(-c3cccnc3OC)nc3cc(C)ccn23)c(C#Cc2ccc3c(C)nccc3c2)n1` [SMACm, BI 891065]: the half-inhibitory concentration (IC50) in the assay with AsPC-1 was greater than 10 µM; in the assay on C80 it was 1.81 µM; in the assay with COR-L105, 4.47 µM; with DLD-1 it was 5.19 µM; in the assay on HCA46 it was 3.54 µM; with HPAF-II, 4.64 µM. In addition, the IC50 came to 3.99 µM with HRA16; 1.24 µM in the assay with IM-95; 2.41 µM with LS-174T; 5.77 µM in the assay on LS-513; 6.16 µM in the assay on NCI-SNU-1; 4.59 µM in the assay on NUGC-3. The IC50 is 2.88 µM in the assay with SNU977, 0.137 µM in the assay on SNUC2B and 3.9 µM in the assay with SW1417.
